Assay results reported in patent US8618178B2, “Method and substances for treating T-cell mediated autoimmune diseases” (Eberhard-Karls-Universitaet Tuebingen Universitaetsklinikum, priority 2006, dated 2013).
Where a name gives a salt, the structure may show the parent alone.

Legend:
[1] = test system: IL-23; test: IL-23 production by DC, ELISA of culture supernatants; type: cell-based, mouse
Procedure: (§1) IL-4, IL-10, IL-12 and interferon-γ were determined using the ELISA (enzyme linked immunosorbent assay) set or with the use of individual components from BD BioSciences. IL-23 in the supernatant was determined using the ELISA set (eBioscience). For intracytoplasmic cytokine analyses, the T cells were restimulated with PMA/ionomycin or with APC and peptide in the presence of brefeldin A, then fixed and permeabilized and stained. For the surface staining, anti-CD4 or KJ1-26 antibodies were used; the cytokine antibodies (PE labeled) were all obtained from BD Pharmingen.
(§2) As antigen presenting cells (APC), T cell depleted spleen cells from syngenic mice were used. Dendritic cells (DC) which were obtained from bone marrow (BMDC) and cultured with GM-CSF were used for the relevant experiments on day 7 of culturing. For the experiment, in each case an equal number of APC were cultured either with the medium alone, with L-BSO (C8H18N2O3S, 0.5 mM), dimethyl sulfoxide DMSO(C2H6OS), dimethyl fumarate DMF (C6H8O4, dissolved in DMSO, 70 μM), or calcium monomethyl fumarate (MMF; CaC10H10O8, 200 μM). All substances except for MMF (Fumapharm) were purchased from Sigma-Aldrich. At the respective stated times (see below) the cells were either analyzed directly for their GSH content, used for T cell stimulation or stimulated for […] with Escherichia coli lipopolysaccharides 055.B5 (Sigma-Aldrich) or CpG-DNA 1668 (MWG Biotech) and IL-4 (Stratmann). In order to raise the GSH level again, 1 mM GSH-OEt (C12H21N3O6S; Sigma-Aldrich) or 1 mM NAC (Sigma-Aldrich) was added. The GSH reservoirs in mice were depleted by feeding with DMF or MMF, and in man by treatment with Fumaderm®.

[2] = test system: IL-10; test: IL-10 production by DC, ELISA of culture supernatants; type: cell-based, mouse
Procedure: as §1
as §2, with “All substances except for MMF (Fumapharm) were purchased from Sigma-Aldrich.” left out, “In order to raise the GSH level again, 1 mM GSH-OEt (C12H21N3O6S; Sigma-Aldrich) or 1 mM NAC (Sigma-Aldrich) was added. The GSH reservoirs in mice were depleted by feeding with DMF or MMF, and in man by treatment with Fumaderm®.” left out

[3] = test system: ovalbumin-specific CD4+ T cells; test: Priming of ovalbumin-specific CD4+ T cells with treated DC, IFN-γ and IL-4 by ELISA; type: cell-based, mouse; details: restimulated with fresh APC and antigen
Procedure: as §1
(§3) The CD4+ T cells of DO11.10 mice were sorted using MACS magnet beads (Miltenyi Biotech). By culturing of DC on day seven with either medium and DMSO or DMF for 2 hours, DC^GSHhigh or DC^GSHlow could be generated. After four-hour stimulation with LPS or CpG-DNA/IL-4, the DC^GSHhigh or DC^GSHlow were used for the stimulation of DO11.10 T cells with 10 μg/ml ovalbumin peptide 323-339 for two days. The T cells were expanded with 50 U/ml IL-2 (Chiron Therapeutics). The cells were washed on day 10 and restimulated with fresh APC. The analysis was performed with the supernatants after 24 hrs. CD4^+ T cells were obtained from SJL mice immunized with PLP peptide using MACS magnet beads and stimulated with irradiated APC and PLP peptide 139-151 in the presence of L-BSO, DMF or only in medium as control. […]

[4] = test system: PLP-specific T cells; test: In vitro stimulation of PLP-specific T cells under GSH deprivation; type: cell-based, mouse
Procedure: as §3, with “hrs.” for “hrs. CD4^+ T cells were obtained from SJL mice immunized with PLP peptide using MACS magnet beads and stimulated with irradiated APC and PLP peptide 139-151 in the presence of L-BSO, DMF or only in medium as control.”
Spleen and lymph node CD4^+ T cells were stimulated with PLP (proteolipid protein) peptide 139-151 (10 μg/ml) and stimulated for four days with irradiated SJL-APC in the presence or absence of L-BSO (0.5 mM, Sigma), expanded for three to four days and then restimulated for cytokine production (proteolipid protein is the commonest myelin protein in the central nervous system and plays an important part as an autoantigen in the onset of multiple sclerosis). […] For the cytokine analysis of PLP-specific T cells, the draining lymph nodes of the SJL mice were removed 6 days after the immunization and CD4^+ T cells antigen-specifically analyzed (ELISPOT). […] After washing with H2O, the number of spots was determined in the ELISPOT reader (Biosys).

[5] = GSH levels in organs of immunized mice after feeding; type: in vivo; details: fed in the drinking water; data not shown
Text: In order further to study whether GSH deprivation can also influence the differentiation and pathogenicity of autoreactive T cells in vivo, mice were fed with DMF or L-BSO in the drinking water, and the control group only with drinking water. Active EAE induction was effected on day 10 with PLP peptide in complete Freund's adjuvant (CFA) and pertussis toxin. The mice were examined daily regarding the course of the artificially triggered disease. Through the administration of L-BSO or DMF, the GSH levels in lymphoid organs and in the brain of immunized mice could be lowered (not shown). […] 6 days after immunization, the draining lymph nodes of the mice were analyzed. For this, the CD4^+ T cells were isolated and the cytokine production of PLP-specific T cells measured using ELISPOT after in vitro stimulation. […] The pharmaceutical substances to be tested can also be analyzed ex vivo for their potential to deplete GSH. For this, after treatment of experimental mice, small tissue pieces are removed from the respective organs and placed in about 1 ml of 1% SSA. The tissue piece in SSA is homogenized using an ultrasonic probe. The further GSH and protein determination is effected according to the procedure described for APC and DC. Comparison with the GSH content of control cells or control tissue indicates the GSH-lowering action of the pharmaceutical substance to be tested.

Question: For `COC(=O)/C=C/C(=O)OC` [DMF, dimethyl fumarate], which “lowering of LPS-induced IL-23 production in DC cultivated from bone marrow” value ([1]; LPS-induced) is on record?
Answer: up to 10,000 fold

Question: And the “IL-23 production by DC” value ([1]; after stimulation with LPS, compared to controls (DMSO))?
Answer: markedly less

Question: What about the “IL-10 production in DC” value [2] of the same compound?
Answer: rise in IL-10 production

Question: And the “IFN-γ production of TH cells induced by treated DC” value [3]?
Answer: little IFN-γ

Question: What about the “IL-4 production of TH cells induced by treated DC” value [3] of the same compound?
Answer: much IL-4

Question: What about the “differentiation of PLP-specific T cells to Th1 and Th-17” value [4] of the same compound?
Answer: inhibits the differentiation of Th1 and Th-17

Question: And the “differentiation of PLP-specific T cells towards Th2” value [4]?
Answer: promotes the differentiation towards Th2

Question: And the “GSH levels in lymphoid organs and in the brain of immunized mice” value [5]?
Answer: lowered

Question: With `CCCCS(=N)(=O)CCC(N)C(=O)O` [L-BSO, L-buthionine sulfoximine] as the compound, how does the “GSH levels in lymphoid organs and in the brain of immunized mice” value [5] read?
Answer: lowered
